Laboratory results reported in ChEMBL document CHEMBL1201862, “PubChem BioAssay data set” (2004).
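A five-concentration, 48-hour dose response in 96-well plates underlies each endpoint, interpolated linearly between surrounding concentrations. At the GI50, growth is halved.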 Active and inactive are the calls of the source. Rule as the data show it: active = GI50 up to about 1.1 µM and inactive = higher.

Assays:
Test in all cases: growth of human tumour cells (NCI), 48 h
SF-539 = system: SF-539
UO-31 = system: UO-31
A549 = system: A549
K562 = system: K562
786-0 = system: 786-0
HT-29 = system: HT-29
UACC-257 = system: UACC-257
SF-268 = system: SF-268
SK-MEL-28 = system: SK-MEL-28
RPMI-8226 = system: RPMI-8226
OVCAR-3 = system: OVCAR-3
CCRF-CEM = system: CCRF-CEM
HOP-62 = system: HOP-62
RXF 393 = system: RXF 393
OVCAR-4 = system: OVCAR-4

Measured: GI50

CCn1cnc2c(=S)nc(N)[nH]c21
inactive: SF-539 > 100 µM | UO-31 > 100 µM | A549 > 100 µM | K562 > 100 µM | 786-0 > 100 µM | HT-29 > 100 µM | UACC-257 > 100 µM | SF-268 > 100 µM | SK-MEL-28 > 100 µM | RPMI-8226 > 100 µM | OVCAR-3 > 100 µM | CCRF-CEM > 100 µM | HOP-62 > 100 µM | RXF 393 > 100 µM

O=C(O)/C=C\C(=O)c1ccc(Cl)cc1
inactive: SF-539 25.1 µM | UO-31 33.9 µM | A549 > 100 µM | K562 31.1 µM | 786-0 28.9 µM | HT-29 27.2 µM | UACC-257 20.1 µM | SF-268 29.4 µM | SK-MEL-28 18.7 µM | RPMI-8226 25.2 µM | OVCAR-4 29.6 µM | OVCAR-3 28.8 µM | CCRF-CEM 20 µM | HOP-62 > 100 µM | RXF 393 21.5 µM

CC1(Cl)CC2OC3(Br)C=CC(C)(O)C2(CC1Br)C3(C)C (configuration not stated)
inactive: SF-539 > 100 µM | UO-31 > 100 µM | A549 > 100 µM | K562 > 100 µM | 786-0 > 100 µM | HT-29 > 100 µM | UACC-257 97.5 µM | SF-268 > 100 µM | SK-MEL-28 > 100 µM | RPMI-8226 > 100 µM | OVCAR-4 > 100 µM | OVCAR-3 > 100 µM | CCRF-CEM > 100 µM | HOP-62 > 100 µM | RXF 393 > 100 µM

Cc1cc([N+](=O)[O-])c(S(=O)(=O)c2ccccc2)c([N+](=O)[O-])c1
inactive: SF-539 12.7 µM | UO-31 16.9 µM | A549 23.6 µM | K562 4.08 µM | 786-0 3.95 µM | HT-29 7.85 µM | UACC-257 3.52 µM | SF-268 13.2 µM | SK-MEL-28 18.9 µM | RPMI-8226 14.8 µM | OVCAR-4 7.83 µM | OVCAR-3 5.62 µM | CCRF-CEM 3.52 µM | HOP-62 21.7 µM | RXF 393 2.2 µM

COc1ccc(C2=C[C@]3(O)CCCN3C[C@@H]2c2ccc(OC)c(OC)c2)cc1
active: SF-539 < 0.0001 µM | UO-31 < 0.0001 µM | A549 < 0.0001 µM | K562 < 0.0001 µM | 786-0 < 0.0001 µM | HT-29 < 0.0001 µM | UACC-257 < 0.0001 µM | SF-268 < 0.0001 µM | SK-MEL-28 < 0.0001 µM | RPMI-8226 > 0.01 µM | OVCAR-4 > 0.01 µM | OVCAR-3 < 0.0001 µM | CCRF-CEM < 0.0001 µM | HOP-62 < 0.0001 µM | RXF 393 > 0.01 µM

COc1cc(Br)c(/C=N/N=C(\N)NO)cc1OC
inactive: SF-539 24.7 µM | UO-31 20.3 µM | A549 10.4 µM | K562 15.7 µM | 786-0 18.4 µM | HT-29 15 µM | UACC-257 17.3 µM | SF-268 8.87 µM | SK-MEL-28 17.5 µM | RPMI-8226 > 100 µM | OVCAR-4 54.5 µM | OVCAR-3 33.2 µM | CCRF-CEM 30.1 µM | HOP-62 14.1 µM | RXF 393 21.9 µM

O=C(c1ccc(Cl)cc1)c1ccc(OCCCOc2ccc(C(=O)c3ccc(Cl)cc3)cc2)cc1
inactive: SF-539 > 100 µM | A549 > 100 µM | K562 > 100 µM | 786-0 > 100 µM | HT-29 > 100 µM | UACC-257 > 100 µM | SF-268 > 100 µM | SK-MEL-28 > 100 µM | RPMI-8226 > 100 µM | OVCAR-4 > 100 µM | OVCAR-3 > 100 µM | CCRF-CEM > 100 µM | HOP-62 > 100 µM | RXF 393 88.3 µM

N#Cc1c(-c2ccco2)cc(-c2ccc(N)cc2)[nH]c1=O
inactive: SF-539 > 100 µM | UO-31 > 100 µM | A549 > 100 µM | K562 > 100 µM | 786-0 > 100 µM | HT-29 > 100 µM | UACC-257 > 100 µM | SF-268 > 100 µM | SK-MEL-28 > 100 µM | RPMI-8226 > 100 µM | OVCAR-4 > 100 µM | OVCAR-3 > 100 µM | CCRF-CEM > 100 µM | HOP-62 > 100 µM | RXF 393 > 100 µM

O=C(Nc1ccc(Br)cc1)C(=O)C(C(=O)c1ccccc1F)C1OC(=O)c2ccccc21 (configuration not stated)
inactive: SF-539 20.1 µM | UO-31 22.3 µM | A549 39.7 µM | K562 31 µM | 786-0 22.5 µM | HT-29 39.6 µM | UACC-257 24.8 µM | SF-268 24.9 µM | SK-MEL-28 18.7 µM | RPMI-8226 17.8 µM | OVCAR-4 24.7 µM | OVCAR-3 39.8 µM | CCRF-CEM 18.6 µM | HOP-62 22.8 µM

CC1(c2ccccc2)CC12C(=O)NC(=O)NC2=O (configuration not stated)
inactive: SF-539 > 100 µM | UO-31 > 100 µM | A549 > 100 µM | K562 > 100 µM | 786-0 > 100 µM | HT-29 > 100 µM | UACC-257 > 100 µM | SF-268 > 100 µM | SK-MEL-28 > 100 µM | RPMI-8226 > 100 µM | OVCAR-4 > 100 µM | OVCAR-3 > 100 µM | CCRF-CEM > 100 µM | HOP-62 > 100 µM

Cc1cc(NS(=O)(=O)c2ccc(Nc3c4ccccc4nc4c(C(=O)Nc5ccc(S(=O)(=O)N=C(N)N)cc5)ccc(Cl)c34)cc2)no1
inactive: SF-539 18.5 µM | UO-31 34.5 µM | A549 > 100 µM | K562 22.1 µM | 786-0 50.4 µM | HT-29 49.7 µM | UACC-257 > 100 µM | SF-268 23.8 µM | SK-MEL-28 54.5 µM | RPMI-8226 29.8 µM | OVCAR-4 28.5 µM | OVCAR-3 21.5 µM | HOP-62 22.1 µM | RXF 393 29 µM

COc1ccc(C(=O)NCCC2=CCCCC2)cc1
inactive: SF-539 > 100 µM | A549 > 100 µM | K562 > 100 µM | 786-0 > 100 µM | HT-29 > 100 µM | UACC-257 > 100 µM | SF-268 > 100 µM | SK-MEL-28 > 100 µM | RPMI-8226 > 100 µM | OVCAR-4 > 100 µM | OVCAR-3 > 100 µM | CCRF-CEM > 100 µM | HOP-62 > 100 µM | RXF 393 > 100 µM

COCOCCCCCO[Si](C)(C)C(C)(C)C
inactive: SF-539 19.1 µM | UO-31 20.5 µM | A549 19.5 µM | K562 26.4 µM | 786-0 14.4 µM | HT-29 14.4 µM | UACC-257 16.5 µM | SF-268 5.19 µM | SK-MEL-28 35.1 µM | RPMI-8226 16.5 µM | OVCAR-3 14.4 µM | CCRF-CEM 16.7 µM | RXF 393 16.6 µM

CC1CC(C)C(=O)C(C(=O)CC2CC(=O)NC2=O)C1 (configuration not stated)
inactive: SF-539 > 100 µM | UO-31 > 100 µM | A549 > 100 µM | K562 > 100 µM | 786-0 > 100 µM | HT-29 > 100 µM | UACC-257 > 100 µM | SF-268 > 100 µM | SK-MEL-28 > 100 µM | RPMI-8226 > 100 µM | OVCAR-4 > 100 µM | OVCAR-3 > 100 µM | CCRF-CEM > 100 µM | HOP-62 > 100 µM | RXF 393 > 100 µM

O=C(O)CSc1nnc(-c2ccco2)[nH]1
inactive: SF-539 > 100 µM | UO-31 > 100 µM | A549 > 100 µM | K562 > 100 µM | 786-0 > 100 µM | HT-29 > 100 µM | UACC-257 > 100 µM | SK-MEL-28 > 100 µM | RPMI-8226 > 100 µM | OVCAR-4 > 100 µM | OVCAR-3 > 100 µM | CCRF-CEM > 100 µM | HOP-62 > 100 µM | RXF 393 > 100 µM

CCCCCC(=O)Nc1nc(O)c2[nH]cnc2n1
inactive: SF-539 > 100 µM | UO-31 > 100 µM | A549 > 100 µM | K562 > 100 µM | 786-0 > 100 µM | HT-29 > 100 µM | UACC-257 > 100 µM | SF-268 > 100 µM | RPMI-8226 > 100 µM | OVCAR-4 > 100 µM | OVCAR-3 > 100 µM | CCRF-CEM > 100 µM | HOP-62 > 100 µM | RXF 393 > 100 µM

C=C=C(C(=O)OC)[S+]([O-])c1ccc([N+](=O)[O-])cc1[N+](=O)[O-] (configuration not stated)
inactive: SF-539 26.1 µM | UO-31 43.4 µM | A549 52.7 µM | K562 20 µM | 786-0 39.7 µM | HT-29 26.1 µM | UACC-257 34.9 µM | SF-268 39 µM | SK-MEL-28 34.7 µM | RPMI-8226 21.7 µM | OVCAR-4 35.6 µM | OVCAR-3 25.3 µM | CCRF-CEM 12 µM | HOP-62 > 45.3 µM | RXF 393 30.7 µM

S=C1OC2C3C4CC5C3C(O1)C1C5C4C21 (configuration not stated)
inactive: SF-539 > 100 µM | UO-31 > 100 µM | A549 > 100 µM | 786-0 > 100 µM | HT-29 > 100 µM | UACC-257 > 100 µM | SF-268 > 100 µM | SK-MEL-28 > 100 µM | RPMI-8226 > 100 µM | OVCAR-4 > 100 µM | OVCAR-3 > 100 µM | CCRF-CEM > 100 µM | HOP-62 > 100 µM | RXF 393 > 100 µM

COc1ccc(N(C)Sc2ccccc2)cc1
inactive: SF-539 20.4 µM | UO-31 34.8 µM | A549 39.4 µM | K562 41.4 µM | 786-0 16.9 µM | UACC-257 37 µM | SF-268 27.4 µM | SK-MEL-28 55.2 µM | RPMI-8226 36.1 µM | OVCAR-3 52.4 µM | CCRF-CEM 6.38 µM | HOP-62 95.5 µM | RXF 393 19.9 µM
